In one assay the test system is Candida albicans. The assay is described as follows: Antifungal activity against Candida albicans C-A-24 strain. Type of assay: functional.
Another assay deals with Aspergillus fumigatus. The assay is described as follows: Antifungal activity against Aspergillus fumigatus Saito strain. Type of assay: functional.
The subject of another assay is Cryptococcus neoformans. The assay is described as follows: Antifungal activity against Cryptococcus neoformans Cr-1 strain. Type of assay: functional.
A further assay relates to Trichophyton benhamiae. The assay is described as follows: Antifungal activity towards Trichophyton mentagrophytes 530324 strain. Type of assay: functional, Arthroderma benhamiae.
In assay [1] the test system is Trichophyton interdigitale. The assay is described as follows: Antifungal activity towards Trichophyton interdigitale. Type of assay: functional.

In brackets after ≈: the same amount, converted by molar mass. A value given as a limit tells only on which side of the number the result lay.

In general, MIC refers to the smallest concentration in the dilution series that meets the test's criterion for growth inhibition. The low end stands for greater potency, the high end for weaker potency. Take `N#Cc1ccc(-c2nnn(CC#CI)n2)cc1`: the MIC amounted to 50 mg/L (≈ 149 µM) with Candida albicans; 6.25 mg/L (≈ 18.7 µM) against Aspergillus fumigatus; 50 mg/L (≈ 149 µM) with Cryptococcus neoformans; 3.13 mg/L (≈ 9.34 µM) against Trichophyton benhamiae; 1.56 mg/L (≈ 4.66 µM) in assay [1].
For `FC(F)(F)c1cccc(-c2nnn(CC#CI)n2)c1`, the MIC with Candida albicans was found to be 3.13 mg/L (≈ 8.28 µM); in the assay with Aspergillus fumigatus, 3.13 mg/L (≈ 8.28 µM); against Cryptococcus neoformans, 1.56 mg/L (≈ 4.13 µM); with Trichophyton benhamiae, 0.1 mg/L (≈ 0.264 µM); in assay [1] it was 0.1 mg/L (≈ 0.264 µM).
In the case of `CCCCCCCc1nnnn1CC#CI`, the MIC was found to be 6.25 mg/L (≈ 18.8 µM) against Candida albicans; 0.78 mg/L (≈ 2.35 µM) against Aspergillus fumigatus; 1.56 mg/L (≈ 4.7 µM) in the assay with Cryptococcus neoformans; 0.2 mg/L (≈ 0.602 µM) with Trichophyton benhamiae; 0.1 mg/L (≈ 0.301 µM) in assay [1].
In the case of `IC#CCn1nccn1`, the MIC against Candida albicans was 1.56 mg/L (≈ 6.69 µM); with Aspergillus fumigatus it was 0.78 mg/L (≈ 3.35 µM); against Cryptococcus neoformans it was 1.56 mg/L (≈ 6.69 µM); against Trichophyton benhamiae, 0.39 mg/L (≈ 1.67 µM); in assay [1], 0.78 mg/L (≈ 3.35 µM).
Regarding `CCCCCc1nnn(CC#CI)n1`, the MIC turned out to be 0.78 mg/L (≈ 2.56 µM) in the assay on Aspergillus fumigatus, 0.1 mg/L (≈ 0.329 µM) in the assay on Trichophyton benhamiae and 0.1 mg/L (≈ 0.329 µM) in assay [1].
Take `O=[N+]([O-])c1c(Cl)c(Cl)n(CC#CI)c1Cc1cc(Cl)cc(Cl)c1O`: the MIC was 25 mg/L (≈ 48.1 µM) against Candida albicans; 12.5 mg/L (≈ 24 µM) against Aspergillus fumigatus; 3.13 mg/L (≈ 6.02 µM) against Cryptococcus neoformans; 3.13 mg/L (≈ 6.02 µM) against Trichophyton benhamiae; 3.13 mg/L (≈ 6.02 µM) in assay [1].
Take `IC#CCn1nnc(C2CC2)n1`: the MIC is 1.56 mg/L (≈ 5.69 µM) in the assay with Candida albicans; 0.39 mg/L (≈ 1.42 µM) against Aspergillus fumigatus; 1.56 mg/L (≈ 5.69 µM) with Cryptococcus neoformans; 0.39 mg/L (≈ 1.42 µM) against Trichophyton benhamiae; 0.78 mg/L (≈ 2.85 µM) in assay [1].
As for `CCCc1nnnn1CC(I)=C(I)I`, the minimum inhibitory concentration (MIC) (in the assay with Trichophyton benhamiae; in assay [1]) was 0.1 mg/L (≈ 0.189 µM) in each case.
As to `Cc1cc(C)n(CC#CI)n1`, the minimal inhibitory concentration (MIC) with Candida albicans amounted to 6.25 mg/L (≈ 24 µM); in the assay on Aspergillus fumigatus, 0.78 mg/L (≈ 3 µM); in the assay with Cryptococcus neoformans, 3.13 mg/L (≈ 12 µM); against Trichophyton benhamiae it was 0.78 mg/L (≈ 3 µM); in assay [1], 0.78 mg/L (≈ 3 µM).
Turning to `Cc1nnnn1CC#CI`, the MIC came to 6.25 mg/L (≈ 25.2 µM) in the assay on Candida albicans; 6.25 mg/L (≈ 25.2 µM) against Aspergillus fumigatus; 3.13 mg/L (≈ 12.6 µM) against Cryptococcus neoformans; 3.13 mg/L (≈ 12.6 µM) in the assay on Trichophyton benhamiae; 3.13 mg/L (≈ 12.6 µM) in assay [1].
Turning to `CC(=O)c1cccn1CC(I)=C(I)I`, the minimum inhibitory concentration (MIC) is 12.5 mg/L (≈ 23.7 µM) against Candida albicans; 12.5 mg/L (≈ 23.7 µM) against Aspergillus fumigatus; above 25 mg/L against Cryptococcus neoformans; 1.56 mg/L (≈ 2.96 µM) against Trichophyton benhamiae; 0.39 mg/L (≈ 0.74 µM) in assay [1].
As to `CCCCCc1nnn(CC(I)=C(I)I)n1`, the MIC against Trichophyton benhamiae turned out to be 0.1 mg/L (≈ 0.179 µM); in assay [1], 0.2 mg/L (≈ 0.358 µM).
In the case of `CCc1nnnn1CC(I)=C(I)I`, the minimum inhibitory concentration (MIC) was above 25 mg/L in the assay with Candida albicans; 25 mg/L (≈ 48.5 µM) against Aspergillus fumigatus; above 25 mg/L against Cryptococcus neoformans; 1.56 mg/L (≈ 3.02 µM) against Trichophyton benhamiae; 3.13 mg/L (≈ 6.07 µM) in assay [1].
Take `CCOC(=O)c1cn(CC(I)=C(I)I)c(Cl)c1Cl`: the MIC against Candida albicans was 25 mg/L (≈ 39.9 µM); in the assay on Aspergillus fumigatus it was 25 mg/L (≈ 39.9 µM); in the assay with Cryptococcus neoformans, 25 mg/L (≈ 39.9 µM); in the assay on Trichophyton benhamiae, 3.13 mg/L (≈ 5 µM); in assay [1], 3.13 mg/L (≈ 5 µM).
For `Cc1ccc(-c2nnn(CC(I)=C(I)I)n2)cc1`, the MIC (with Candida albicans; in the assay on Aspergillus fumigatus; in the assay with Cryptococcus neoformans; in the assay on Trichophyton benhamiae; in assay [1]) was above 100 mg/L throughout.
Regarding `CCCCCCCc1nnn(CC(I)=C(I)I)n1`, the MIC in the assay with Candida albicans came to 12.5 mg/L (≈ 21.3 µM); against Trichophyton benhamiae it was 0.78 mg/L (≈ 1.33 µM).
`CCc1nnn(CC(I)=C(I)I)n1`: the MIC in the assay on Candida albicans was 0.78 mg/L (≈ 1.51 µM); against Aspergillus fumigatus, 0.2 mg/L (≈ 0.388 µM); against Cryptococcus neoformans, 0.78 mg/L (≈ 1.51 µM); in the assay on Trichophyton benhamiae, 0.2 mg/L (≈ 0.388 µM); in assay [1], 0.1 mg/L (≈ 0.194 µM).
For the molecule `O=[N+]([O-])c1ncnn1CC(I)=C(I)I`, the MIC in the assay on Candida albicans is 12.5 mg/L (≈ 23.5 µM); in the assay with Aspergillus fumigatus it was 0.39 mg/L (≈ 0.733 µM); in the assay with Cryptococcus neoformans, 0.78 mg/L (≈ 1.47 µM); in the assay with Trichophyton benhamiae, 0.39 mg/L (≈ 0.733 µM); in assay [1] it was 0.2 mg/L (≈ 0.376 µM).
`CC(C)(C)c1nnn(CC(I)=C(I)I)n1`: the figures for the MIC against Candida albicans, with Cryptococcus neoformans and against Trichophyton benhamiae were above 25 mg/L, above 25 mg/L and 0.39 mg/L (≈ 0.717 µM), respectively.
`COc1ccc(-c2nnn(CC#CI)n2)cc1`: the MIC worked out at 25 mg/L (≈ 73.5 µM) with Cryptococcus neoformans, 0.1 mg/L (≈ 0.294 µM) in the assay with Trichophyton benhamiae and 0.1 mg/L (≈ 0.294 µM) in assay [1].
On to `IC(I)=C(I)Cn1nnnc1Cc1ccccc1`, for which the MIC against Candida albicans was above 25 mg/L; with Aspergillus fumigatus it was 25 mg/L (≈ 43.3 µM); with Cryptococcus neoformans, above 25 mg/L; against Trichophyton benhamiae it was 0.1 mg/L (≈ 0.173 µM); in assay [1], 0.1 mg/L (≈ 0.173 µM).
As to `IC#CCn1nnc(-c2ccc(C3N=NN=N3)cc2)n1`, the MIC with Candida albicans was above 100 mg/L; in the assay with Aspergillus fumigatus, above 100 mg/L; with Cryptococcus neoformans, above 100 mg/L; in the assay on Trichophyton benhamiae it was 1.56 mg/L (≈ 4.13 µM); in assay [1], 1.56 mg/L (≈ 4.13 µM).
On to `CCCc1nnn(CC#CI)n1`, for which the MIC (with Aspergillus fumigatus; with Trichophyton benhamiae; in assay [1]) was 0.1 mg/L (≈ 0.362 µM) throughout.
As for `Clc1ccc(-c2nnn(CC#CI)n2)cc1`, the results for the MIC (in the assay with Trichophyton benhamiae; in assay [1]) were 0.1 mg/L (≈ 0.29 µM) and 0.2 mg/L (≈ 0.58 µM), respectively.
Regarding `Fc1ccc(-c2nnn(CC#CI)n2)cc1`, the MIC against Candida albicans turned out to be 0.78 mg/L (≈ 2.38 µM); against Aspergillus fumigatus, 0.2 mg/L (≈ 0.61 µM); against Cryptococcus neoformans, 0.78 mg/L (≈ 2.38 µM); in the assay with Trichophyton benhamiae, 0.1 mg/L (≈ 0.305 µM); in assay [1] it was 0.1 mg/L (≈ 0.305 µM).
For `CC(C)c1nnnn1CC(I)=C(I)I`, in the assay with Trichophyton benhamiae, the MIC was found to be 3.13 mg/L (≈ 5.91 µM).
With `CCCc1nnn(CC(I)=C(I)I)n1`, the minimal inhibitory concentration (MIC) (against Trichophyton benhamiae; in assay [1]) was 0.1 mg/L (≈ 0.189 µM) throughout.

The record behind these values is ChEMBL document CHEMBL1123701, “Synthesis and quantitative structure-activity relationship analysis of N-triiodoallyl- and N-iodopropargylazoles. New antifungal agents” (1987).
